# Data from ChEMBL document CHEMBL5154652, “Design, synthesis and anti-hepatocellular carcinoma activity of 3-arylisoquinoline alkaloids” (Eur J Med Chem, 2022).
# pIC50: −log10 of the molar value. Active and inactive are the calls of the source. The rule behind the calls is not given here.
# How the values were obtained:
# [1] = test system: Huh-7; test: Induction of apoptosis in human Huh-7 cells assessed as reduction in Bcl-2 expression at 5 to 20 uM; assay type: functional, cell-based; details: dose 5-20 µM
# [2] = test system: HGC-27; test: Antiproliferative activity against human HGC-27 cells after 72 hrs by MTT assay; assay type: functional, cell-based; details: HGC-27, 72 h
# [3] = test system: HCCLM9; test: Antiproliferative activity against human HCCLM9 cells at 1.25 to 5 uM after 24 hrs by EdU incorporation assay; assay type: functional, cell-based; details: dose 1.25-5 µM
# [4] = test system: HCCLM9; test: Inhibition of MMP-9 expression in human HCCLM9 cells at 3.75 to 15 uM measured by western blot analysis; assay type: functional, cell-based; details: dose 3.75-15 µM
# [5] = test system: Huh-7; test: Inhibition of MMP-9 expression in human Huh-7 cells at 5 to 20 uM measured by western blot analysis; assay type: functional, cell-based; details: dose 5-20 µM
# [6] = test system: L02; test: Antiproliferative activity against human L02 cells after 72 hrs by MTT assay; assay type: functional, cell-based; details: L02, 72 h
# [7] = Observed apparent oral clearance in male Sprague-Dawley rat at 100 mg/kg, ip; assay type: ADME, organism-based; details: in vivo
# [8] = test system: HCCLM9; test: Induction of cell cycle arrest in human HCCLM9 cells assessed as decrease in cell accumulation at S phase at 3.75 to 15 uM measured after 48 hrs by flow cytometry analysis; assay type: functional, cell-based; details: dose 3.75-15 µM
# [9] = test system: Huh-7; test: Induction of apoptosis in human Huh-7 cells assessed as increase in Bax expression at 5 to 20 uM; assay type: functional, cell-based; details: dose 5-20 µM
# [10] = test system: Huh-7; test: Induction of cell cycle arrest in human Huh-7 cells assessed as increase in cell accumulation at G2/M phase at 5 to 20 uM measured after 48 hrs by flow cytometry analysis; assay type: functional, cell-based; details: dose 5-20 µM
# [11] = MRT (0 to t)in male Sprague-Dawley rat at 100 mg/kg, ip; assay type: ADME, organism-based; details: in vivo
# [12] = test system: MCF7; test: Antiproliferative activity against human MCF7 cells after 72 hrs by MTT assay; assay type: functional, cell-based; details: MCF7, 72 h
# [13] = test system: HT-29; test: Antiproliferative activity against human HT-29 cells after 72 hrs by MTT assay; assay type: functional, cell-based; details: HT-29, 72 h
# [14] = test system: DNA; test: Binding affinity to DNA (unknown origin) assessed as DNA intercalation at 100 uM measured by unwinding assay relative to control; assay type: nucleic-acid assay; details: Homo sapiens
# [15] = test system: HCCLM9; test: Induction of mitochondrial dysfunction in human HCCLM9 cells assessed as decrease in MMP levels at 5 to 20 uM; assay type: functional, cell-based; details: dose 5-20 µM
# [16] = test system: Huh-7; test: Induction of mitochondrial dysfunction in human Huh-7 cells assessed as decrease in MMP levels at 5 to 20 uM; assay type: functional, cell-based; details: dose 5-20 µM
# [17] = test system: HCCLM9; test: Induction of mitochondrial apoptosis in human HCCLM9 cells assessed as inhibition of p-mTOR levels at 3.75 to 15 uM measured after 48 hrs by Western blot analysis; assay type: functional, cell-based; details: dose 3.75-15 µM
# [18] = test system: HCCLM9; test: Antitumor activity against human HCCLM9 cells xenografted in male BALB/c nude mouse assessed as inhibition of tumor growth at 15 mg/kg, iv administered once a day for 21 days; assay type: functional, organism-based; details: time 21.0 day
# [19] = target: DNA topoisomerase 1 (Homo sapiens) (UniProt P11387); test: Inhibition of DNA topoisomerase 1 (unknown origin) at 25 to 50 uM measured by agar gel electrophoresis relative to control; details: dose 25-50 µM
# DNA topoisomerase 1 (Homo sapiens), sequence (P11387 whole entry): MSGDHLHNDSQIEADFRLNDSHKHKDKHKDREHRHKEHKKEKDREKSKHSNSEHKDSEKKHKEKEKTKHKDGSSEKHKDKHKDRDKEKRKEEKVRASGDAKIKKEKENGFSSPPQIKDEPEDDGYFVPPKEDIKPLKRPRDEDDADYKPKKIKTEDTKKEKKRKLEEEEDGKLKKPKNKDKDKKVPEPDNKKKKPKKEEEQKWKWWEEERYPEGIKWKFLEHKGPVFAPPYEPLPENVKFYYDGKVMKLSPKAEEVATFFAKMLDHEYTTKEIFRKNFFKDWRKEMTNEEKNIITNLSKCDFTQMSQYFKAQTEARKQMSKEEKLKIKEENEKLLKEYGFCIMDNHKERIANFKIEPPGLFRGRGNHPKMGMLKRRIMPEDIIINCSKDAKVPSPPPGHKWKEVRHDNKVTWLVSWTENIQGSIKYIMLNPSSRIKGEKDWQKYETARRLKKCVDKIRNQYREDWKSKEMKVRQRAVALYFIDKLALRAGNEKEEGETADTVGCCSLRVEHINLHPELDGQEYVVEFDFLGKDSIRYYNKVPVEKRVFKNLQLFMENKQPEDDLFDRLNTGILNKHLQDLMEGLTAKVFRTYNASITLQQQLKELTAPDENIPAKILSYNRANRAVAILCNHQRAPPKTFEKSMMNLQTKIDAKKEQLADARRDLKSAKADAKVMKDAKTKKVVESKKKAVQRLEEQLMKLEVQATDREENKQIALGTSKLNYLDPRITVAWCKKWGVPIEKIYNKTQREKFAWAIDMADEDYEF
# [20] = test system: SK-HEP1; test: Antiproliferative activity against human SK-HEP1 cells after 72 hrs by MTT assay; assay type: functional, cell-based; details: SK-HEP1, 72 h
# [21] = Tmax in male Sprague-Dawley rat at 100 mg/kg, ip; assay type: ADME, organism-based; details: in vivo
# [22] = test system: U-251; test: Antiproliferative activity against human U-251 cells after 72 hrs by MTT assay; assay type: functional, cell-based; details: U-251, 72 h
# [23] = Half-life in male Sprague-Dawley rat at 100 mg/kg, ip; assay type: ADME, organism-based; details: in vivo
# [24] = test system: HCCLM9; test: Induction of apoptosis in human HCCLM9 cells assessed as increase in cleaved caspase-3 expression at 3.75 to 15 uM; assay type: functional, cell-based; details: dose 3.75-15 µM
# [25] = test system: Huh-7; test: Inhibition of cell invasion in human Huh-7 cells at 2 to 8 uM after 24 hrs; assay type: functional, cell-based; details: dose 2-8 µM
# [26] = test system: HCCLM9; test: Induction of mitochondrial apoptosis in human HCCLM9 cells assessed as inhibition of p-Akt levels at 3.75 to 15 uM measured after 48 hrs by Western blot analysis; assay type: functional, cell-based; details: dose 3.75-15 µM
# [27] = Genotoxicity in human HCCLM9 cells assessed as induction of DNA damage at 20 uM by comet assay; assay type: toxicity, cell-based; details: hcclm9, 20 µM
# [28] = test system: Huh-7; test: Antiproliferative activity against human Huh-7 cells after 72 hrs by MTT assay; assay type: functional, cell-based; details: Huh-7, 72 h
# [29] = test system: Huh-7; test: Induction of mitochondrial apoptosis in human Huh-7 cells assessed as inhibition of p-PI3K levels at 5 to 20 uM measured after 48 hrs by Western blot analysis; assay type: functional, cell-based; details: dose 5-20 µM
# [30] = test system: HCCLM9; test: Induction of apoptosis in human HCCLM9 cells assessed as reduction in Bcl-2 expression at 3.75 to 15 uM; assay type: functional, cell-based; details: dose 3.75-15 µM
# [31] = test system: HCCLM9; test: Induction of mitochondrial apoptosis in human HCCLM9 cells assessed as inhibition of p-PI3K levels at 3.75 to 15 uM measured after 48 hrs by Western blot analysis; assay type: functional, cell-based; details: dose 3.75-15 µM
# [32] = Toxicity in male BALB/c nude mouse xenografted with human HCCLM9 cells assessed as effect on body weight at 15 mg/kg, iv administered once a day for 21 days; assay type: organism-based; details: in vivo, 504 h, time 21 day
# [33] = test system: HCCLM9; test: Induction of apoptosis in human HCCLM9 cells assessed as increase in cytochrome C expression at 3.75 to 15 uM; assay type: functional, cell-based; details: dose 3.75-15 µM
# [34] = test system: HCCLM9; test: Induction of cell cycle arrest in human HCCLM9 cells assessed as increase in cell accumulation at G2/M phase at 3.75 to 15 uM measured after 48 hrs by flow cytometry analysis; assay type: functional, cell-based; details: dose 3.75-15 µM
# [35] = test system: HepG2; test: Antiproliferative activity against human HepG2 cells after 72 hrs by MTT assay; assay type: functional, cell-based; details: HepG2, 72 h
# [36] = AUC (0 to t) in male Sprague-Dawley rat at 100 mg/kg, ip; assay type: ADME, organism-based; set-up: dose 100 mg/kg, route ip; details: in vivo
# [37] = test system: Huh-7; test: Induction of apoptosis in human Huh-7 cells assessed as increase in cleaved caspase-9 expression at 5 to 20 uM; assay type: functional, cell-based; details: dose 5-20 µM
# [38] = test system: HCT-116; test: Antiproliferative activity against human HCT-116 cells after 72 hrs by MTT assay; assay type: functional, cell-based; details: HCT-116, 72 h
# [39] = test system: Huh-7; test: Antiproliferative activity against human Huh-7 cells at 2 to 8 uM after 24 hrs by EdU incorporation assay; assay type: functional, cell-based; details: dose 2-8 µM
# [40] = test system: BGC-823; test: Antiproliferative activity against human BGC-823 cells after 72 hrs by MTT assay; assay type: functional, cell-based; details: BGC-823, 72 h
# [41] = test system: Huh-7; test: Inhibition of cell migration in human Huh-7 cells at 2 to 8 uM after 24 hrs by transwell assay; assay type: functional, cell-based; details: dose 2-8 µM
# [42] = test system: HCCLM9; test: Induction of cell cycle arrest in human HCCLM9 cells assessed as decrease in cell accumulation at G0/G1 phase at 3.75 to 15 uM measured after 48 hrs by flow cytometry analysis; assay type: functional, cell-based; details: dose 3.75-15 µM
# [43] = test system: HCCLM9; test: Induction of apoptosis in human HCCLM9 cells assessed as increase in cleaved caspase-9 expression at 3.75 to 15 uM; assay type: functional, cell-based; details: dose 3.75-15 µM
# [44] = test system: SW480; test: Antiproliferative activity against human SW480 cells after 72 hrs by MTT assay; assay type: functional, cell-based; details: SW480, 72 h
# [45] = test system: Huh-7; test: Induction of apoptosis in human Huh-7 cells assessed as increase in cytochrome C expression at 5 to 20 uM; assay type: functional, cell-based; details: dose 5-20 µM
smiles,measurement,setting,value
CNCc1cc2c(cc1-c1cc3ccc4c(c3cn1)OCO4)OCO2,Activity,[1],Active
same,pIC50,[2],4.47
same,Activity,[3],Active
same,inhibition,[4],Active
same,inhibition,[5],Active
same,pIC50,[6],< 3.82
same,CL/F,[7],20.42 (mg)/(ug/ml)/hr
same,Activity,[8],Active
same,Activity,[9],Active
same,Activity,[10],Active
same,MRT last,[11],1 h
same,pIC50,[12],4.65
same,pIC50,[13],4.51
same,Activity,[14],Active
same,Activity,[15],Active
same,Activity,[16],Active
same,Activity,[17],Active
same,Activity,[18],Active
same,inhibition,[19],Active
same,pIC50,[20],4.78
same,Tmax,[21],1 h
same,pIC50,[22],4.87
same,half-life,[23],3.73 h
same,Activity,[24],Active
same,inhibition,[25],Active
same,Activity,[26],Active
same,Activity,[27],Non-Toxic
same,pIC50,[28],5.01
same,Activity,[29],Active
same,Activity,[30],Active
same,Activity,[31],Active
same,Activity,[32],Non-Toxic
same,Activity,[33],Active
same,Activity,[34],Active
same,pIC50,[35],4.28
same,AUC(0-t),[36],31600 ng·h/mL
same,Activity,[37],Active
same,pIC50,[38],4.19
same,Activity,[39],Active
same,pIC50,[40],4.75
same,inhibition,[41],Active
same,Activity,[42],Active
same,Activity,[43],Active
same,pIC50,[44],5.04
same,Activity,[45],Active
